Here are results for nine compounds from patent US20240024313A1, “BIARYL ETHER UREA COMPOUNDS” (Jazz Pharmaceuticals Ireland Limited, priority 2022, published 2024).

One data set deals with T1, Human FAAH (Homo sapiens, UniProt O00519).
T1 construct: Recombinant human FAAH encoding full length amino acids were expressed in insect cells; made in house; host or cells: insect cells (baculovirus infection)
T1 sequence (O00519 1-579): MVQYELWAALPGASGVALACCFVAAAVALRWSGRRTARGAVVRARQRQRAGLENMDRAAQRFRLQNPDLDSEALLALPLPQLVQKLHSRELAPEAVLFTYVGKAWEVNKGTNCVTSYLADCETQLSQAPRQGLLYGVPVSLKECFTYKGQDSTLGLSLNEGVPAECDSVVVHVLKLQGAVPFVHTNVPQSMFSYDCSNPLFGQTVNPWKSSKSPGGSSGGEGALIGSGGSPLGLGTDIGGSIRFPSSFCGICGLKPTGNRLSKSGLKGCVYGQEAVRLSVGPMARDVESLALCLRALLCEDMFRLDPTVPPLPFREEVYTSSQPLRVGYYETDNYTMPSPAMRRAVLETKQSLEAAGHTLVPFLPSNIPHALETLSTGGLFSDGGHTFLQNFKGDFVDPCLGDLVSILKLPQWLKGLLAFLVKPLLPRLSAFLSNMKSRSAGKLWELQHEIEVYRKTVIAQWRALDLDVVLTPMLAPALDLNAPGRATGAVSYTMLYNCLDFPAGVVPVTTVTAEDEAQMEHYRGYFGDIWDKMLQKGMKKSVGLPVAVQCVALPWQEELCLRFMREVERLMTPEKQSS
The data set is described as follows: Fluorometric-based Human FAAH Inhibition Assay. The class given is biochemical. The settings on record: recombinant human FAAH 125 nM, 1 hour preincubation, AMC Arachidonoyl Amide substrate. As to the method:
Human FAAH protein was prepared using the following method: Recombinant human FAAH encoding full length amino acids were expressed in insect cells using baculovirus infection as C-terminal (non-cleavable) 8×His tag fusion protein. Protein was supplied as cell lysate: resuspended 100,000×g pellet at 5.12 mg/ml a buffer containing 20 mM HEPES, pH 7.8, 150 mM NaCl, 1 mM EDTA, 1 mM DTT, 0.5% CHAPS. Specific activity was determined to be 844 U/mg.
Fluorometric-based Human FAAH Inhibition Assay was performed using the following method:
(§1) Assays were performed in standard-volume, black, non-binding 384-well plates (Corning #3654). All additions were carried out using the Agilent Bravo Automated Liquid Handler using an 384ST pipetting head.
FAAH reactions contained 125 nM Fatty Acid Amide Hydrolase (human, recombinant) diluted in an assay buffer containing Tris-EDTA, pH 9.0 at ambient temperature. To obtain 125 nM FAAH per well, a working stock was made at 312.5 nM by diluting 94 μL of 79.63 μM enzyme to 24 mL of assay buffer, then adding 20 μL to each well. Using the mother plates (prepared at 1000× in DMSO), the Agilent Bravo performed a 1:100 dilution step in assay buffer prior to adding 5 μL to each well for an additional 1:10 dilution.
Plates were incubated at room-temperature for 1 hour.
To initialize the reaction, a final concentration of […] of AMC Arachidonoyl Amide was added to each well. To obtain this concentration, a working stock was made at […] by adding 960 μL of 0.1 mM AMC stock to 24 mL of assay buffer, then 25 μL was added to each well. This stock was made at 4% DMSO for a final assay concentration contribution of 2% DMSO.
(§2) The total reaction volume per well was 50 μL. The reactions were allowed to proceed at 37° C. for 30 minutes with fluorescence monitored using a Cytation 5 Multimode imaging plate reader (BioTek Instruments) using excitation and emission wavelengths of 350/10 nm and 455/10 nm, respectively. Rates (RFU/min) were calculated from the linear portion of the reaction curves using a linear least squares curve fitting method using Gen5 v3.10. Calculated rates were then normalized to DMSO control and presented as percentages. Data were graphed and statistics were performed using GraphPad Prism v9.0.1.
Data for the Fluorometric-based Human FAAH Inhibition Assay are recited in Table 2 and in FIG. 1.

In the next data set the target is T2, Rat FAAH (Rattus norvegicus, UniProt P97612).
T2 construct: truncated rat FAAH encoding amino acids residues 30-579; 6xHis (N); TEV cleavage site (N); made in house; host or cells: E. coli (pLysS cells)
T2 sequence (P97612 30-579): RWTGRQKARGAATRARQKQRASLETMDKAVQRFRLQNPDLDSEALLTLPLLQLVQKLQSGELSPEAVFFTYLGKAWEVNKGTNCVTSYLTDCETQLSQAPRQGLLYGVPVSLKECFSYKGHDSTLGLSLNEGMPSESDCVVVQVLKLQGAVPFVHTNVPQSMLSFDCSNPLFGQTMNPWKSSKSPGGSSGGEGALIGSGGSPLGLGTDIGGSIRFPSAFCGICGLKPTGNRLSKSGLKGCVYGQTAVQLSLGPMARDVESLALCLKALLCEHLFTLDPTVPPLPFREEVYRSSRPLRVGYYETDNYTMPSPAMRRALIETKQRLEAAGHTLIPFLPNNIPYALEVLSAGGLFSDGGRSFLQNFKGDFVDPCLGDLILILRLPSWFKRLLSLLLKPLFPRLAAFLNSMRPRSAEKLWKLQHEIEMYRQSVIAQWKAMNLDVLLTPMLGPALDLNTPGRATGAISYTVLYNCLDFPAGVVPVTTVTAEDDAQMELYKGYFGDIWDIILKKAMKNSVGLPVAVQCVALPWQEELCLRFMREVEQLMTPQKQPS
The data set can be described thus: Fluorometric-based Rat FAAH Inhibition Assay. It is filed as biochemical. The settings on record: recombinant rat FAAH 20 nM, 1 hour preincubation, 2 μM AMC Arachidonoyl Amide substrate. The procedure: Rat FAAH protein was prepared using the following method: Recombinant truncated rat FAAH encoding amino acids residues 30-579 were expressed in E. coli as NH2-terminal 6×HIS-tag and a TEV-cleavage site fusion protein. 6 L pLysS cells were induced to express FAAH. Cells were lysed and centrifuged. The insoluble pellet was resuspended using a Dounce homogenizer in CHAPS-containing buffer and allowed to stir at 4° C. for 1 hour. The resuspended pellet was then centrifuged and rat FAAH in the clarified supernatant was purified by IMAC. The purest protein fractions were pooled, and buffer exchanged into storage buffer by dialysis. The protein concentration was determined by Bradford assay aliquots were flash frozen in liquid nitrogen.
Fluorometric-based Rat FAAH Inhibition Assay was performed using the following method:
as §1
FAAH reactions contained 20 nM Fatty Acid Amide Hydrolase (rat, recombinant) diluted in an assay buffer containing Tris-EDTA, pH 9.0 at ambient temperature. To obtain 20 nM FAAH per well, a working stock was made at 50 nM by diluting 150 μL of 7.93 μM enzyme to 24 mL of assay buffer, then adding 20 μL to each well. Using the mother plates (prepared at 1000× in DMSO), the Agilent Bravo performed a 1:100 dilution step in assay buffer prior to adding 5 μL to each well for an additional 1:10 dilution.
Plates were incubated at room temperature for 1 hour.
To initialize the reaction a final concentration of 2 μM of AMC Arachidonoyl Amide was added to each well. To obtain this concentration a working stock was made at 4 μM by adding 960 μL of 0.1 mM AMC stock to 24 mL of assay buffer, then 25 μL was added to each well. This stock was made at 4% DMSO for a final assay concentration contribution of 2% DMSO.
as §2
Data for the Fluorometric-based Rat FAAH Inhibition Assay are recited in Table 2 and in FIG. 2.

Data set [1] can be described thus: Phase 1 crossover pharmacokinetic study of Compound of Formula (II) formulations in healthy adult participants. As to conditions: human, in vivo, oral, preliminary data; for AUC(0-t) / Cmax: 4 mg. As to the method: Partial preliminary data on Compound of Formula (II), Compound B, and Compound C) were obtained from a phase 1, single-center, open-label, randomized, 3-period, 2-sequence crossover study to characterize the PK, safety, and tolerability of Compound of Formula (II) formulations (capsule vs tablet) in healthy adult participants. In Periods 1 and 2, participants were randomized to receive 4 mg Compound of Formula (II) capsule formulation or 4 mg Compound of Formula (II) tablet formulation.
Pharmacokinetic parameters for compound of Formula (II), Compound B, and Compound C following single dose of 4 mg of compound of Formula (II) are provided in Table 3. Pharmacokinetic parameters for compound of Formula (II), Compound B, and Compound C following multiple doses of 4 mg of compound of Formula (II) are provided in Table 4.

Where [2] appears, read: following multiple doses of 4 mg of compound of Formula (II).
Setting [3] is: following single dose of 4 mg of compound of Formula (II).

Each structure is given as a SMILES string.

As for `O=C(Nc1cccnn1)N1CC/C(=C\c2cccc(Oc3ccc(C(F)(F)F)cn3)c2)[C@@H](O)C1` [Compound A-RE, (R,E)-3-hydroxy-N-(pyridazin-3-yl)-4-(3-((5-(trifluoromethyl)pyridin-2-yl)oxy)benzylidene)piperidine-1-carboxamide], the IC50 on Human FAAH worked out at 9.01 ± 0.68 nM; on Rat FAAH, 56.8 ± 16.6 nM.

As for `O=C(Nc1cccnn1)N1CC/C(=C/c2cccc(Oc3ccc(C(F)(F)F)cn3)c2)[C@@H](O)C1` [Compound A-RZ, (R,Z)-3-hydroxy-N-(pyridazin-3-yl)-4-(3-((5-(trifluoromethyl)pyridin-2-yl)oxy)benzylidene)piperidine-1-carboxamide], the IC50 on Human FAAH worked out at 39.3 ± 2.89 nM; on Rat FAAH it was 170 ± 43 nM.

As to `O=C(Nc1cccnn1)N1CC/C(=C\c2cccc(Oc3ccc(C(F)(F)F)cn3)c2)[C@H](O)C1` [Compound A-SE, (S,E)-3-hydroxy-N-(pyridazin-3-yl)-4-(3-((5-(trifluoromethyl)pyridin-2-yl)oxy)benzylidene)piperidine-1-carboxamide], the IC50 on Human FAAH was determined as 439 ± 14.7 nM; on Rat FAAH it was 3720 ± 542 nM.

`O=C(Nc1cccnn1)N1CC/C(=C/c2cccc(Oc3ccc(C(F)(F)F)cn3)c2)[C@H](O)C1` [Compound A-SZ, (S,Z)-3-hydroxy-N-(pyridazin-3-yl)-4-(3-((5-(trifluoromethyl)pyridin-2-yl)oxy)benzylidene)piperidine-1-carboxamide]: the IC50 at Human FAAH is 300 ± 54.9 nM; at Rat FAAH, 3290 ± 583 nM.

Take `O=C1CCC(NC(=O)N2CCC(=Cc3cccc(Oc4ccc(C(F)(F)F)cn4)c3)CC2)=NN1` [Compound B, N-(6-oxo-1,4,5,6-tetrahydropyridazin-3-yl)-4-(3-((5-(trifluoromethyl)pyridin-2-yl)oxy)benzylidene)piperidine-1-carboxamide]: the half-maximal inhibitory concentration (IC50) on Human FAAH came out at 12.4 ± 0.89 nM. The IC50 on Rat FAAH stood at 85.2 ± 9.33 nM. Also, in data set [1] (setting [2]), the AUC(0-t) was determined as 906 ng·h/mL, the Cmax was 9.3 ng/mL, the AUC was 208 ng·h/mL and the Tmax was determined as 24 h. In data set [1] (setting [2]), this compound had a half-life of 85 h. In data set [1] (setting [3]), this compound came in with an exposure AUC(0-t) of 0.6 ng·h/mL and a Cmax of 0.3 ng/mL.

`O=C(O)CCC(=O)NC(=O)N1CCC(=Cc2cccc(Oc3ccc(C(F)(F)F)cn3)c2)CC1` [Compound C, 4-oxo-4-(4-(3-((5-(trifluoromethyl)pyridin-2-yl)oxy)benzylidene)piperidine-1-carboxamido)butanoic acid]: the IC50 on Human FAAH turned out to be 758 ± 11.2 nM. The IC50 on Rat FAAH turned out to be 39.6 ± 5.84 nM. Moreover, in data set [1] (setting [2]), the exposure AUC(0-t) amounted to 281 ng·h/mL, the peak level (Cmax) was 3.9 ng/mL, the AUC was 86 ng·h/mL and the Tmax was determined as 8 h. The compound also showed a half-life in data set [1] (setting [2]) of 40.4 h. In data set [1] (setting [3]), this compound yielded an AUC(0-t) of 1.1 ng·h/mL and a Cmax of 0.4 ng/mL.

With `O=C(Nc1cccnn1)N1CCC(O)(C(O)c2cccc(Oc3ccc(C(F)(F)F)cn3)c2)CC1` (centres unmarked) [Compound D, 4-hydroxy-4-(hydroxy(3-((5-(trifluoromethyl)pyridin-2-yl)oxy)phenyl)methyl)-N-(pyridazin-3-yl)piperidine-1-carboxamide], the figures for the IC50 on Human FAAH and on Rat FAAH were 555 ± 84.4 nM and 3480 ± 654 nM, respectively.

Turning to `FC(F)(F)c1ccc(Oc2cccc(C=C3CCNCC3)c2)nc1` [Compound E, 2-(3-(piperidin-4-ylidenemethyl)phenoxy)-5-(trifluoromethyl)pyridine], at Human FAAH, the IC50 is 34400 ± 24100 nM.

Consider `O=C(Nc1cccnn1)N1CCC(=Cc2cccc(Oc3ccc(C(F)(F)F)cn3)c2)CC1` [Compound of Formula (II), reference compound], for which, at Human FAAH, the IC50 was determined as 3.56 ± 0.67 nM. The IC50 at Rat FAAH came out at 10.2 ± 1.17 nM. For the same compound, in data set [1] (setting [2]), the exposure AUC(0-t) amounted to 1340 ng·h/mL, the Cmax was found to be 46.6 ng/mL, the AUC was found to be 625 ng·h/mL and the Tmax amounted to 2 h. Moreover, in data set [1] (setting [2]), the half-life is 32.2 h. Further, in data set [1] (setting [3]), the AUC(0-t) is 138 ng·h/mL and the Cmax was found to be 31.3 ng/mL.
